Measurements: paper PMC7243115, “Evaluation of the Anti-Tumor Activity of Small Molecules Targeting Eph/Ephrins in APC ^min/J Mice” (Pharmaceuticals, 2020)
Values joined by “and” are separate entries in the source; they are usually repeats but may differ in a detail not shown here. Identical values can stand only once.

Columns and labels:
APC ^min/J mice = assay type: in vivo; conditions: 30 mg/kg oral every other day, 8 weeks
Experimental: UniPR129, UniPR139 and UniPR1331 were tested in an animal model of intestinal tumorigenesis, based on the usage of APC ^min/J mice, which spontaneously develop multiple and large adenomas over intestinal tract due to a gene mutation.
(§1) 5 weeks old C57BL/6J-APC ^min/J male mice were purchased from Jackson Laboratory (Bar Harbor, ME USA). Mice were weighted and randomly subdivided in four groups: • Control group: Oral administration of Methocel 0.5% every other day; • Three treatment groups: oral administration of UniPR129, UniPR139 or UniPR1331 30 mg/kg in Methocel 0.5% every other day.
(§2) The experiment was carried out for 8 weeks and over this period the weight was monitored once a week. At the end of the experiment, all mice were sacrificed by carbon dioxide inhalation and blood samples were collected via intracardiac […] and used for evaluation of hematological parameters.
Hematological and blood chemistry parameters were undergone to one-way ANOVA to compare control group to treatment groups.

[1] = system: adenomas in APC ^min/J mice; assay: Intestinal tumorigenesis model: number and diameter of adenomas (histological analysis); assay type: in vivo
Experimental: UniPR129, UniPR139 and UniPR1331 were tested in an animal model of intestinal tumorigenesis, based on the usage of APC ^min/J mice, which spontaneously develop multiple and large adenomas over intestinal tract due to a gene mutation. […] Five weeks old mice have been treated with the three compounds at 30 mg/kg dose for 8 weeks every other day following previous observations. The weight of the mice has been monitored from the beginning of the treatment until the end of the study to follow the course of the disease and to detect potentially toxic effects of compounds.
as §1, §2
The whole intestine of all the mice was resected, washed with sterile PBS and fixed with 4% formalin. After 24 h, the intestine was longitudinally divided in 6 portions (1-duodenum, 2-jejunum, 3-ileum, 4-caecum, 5-colon, 6-rectum) and each portion was embedded in paraffin and sectioned at 5 μm with microtome (Leica). Slides were dried at 37 °C for 24 h, then deparaffinized in xylene, rehydrated with decreasing concentration of alcohol and stained with hematoxylin and eosin.
Histological slides were examined with Nikon Eclipse E800 microscope (Nikon Corporation, Japan) and photographs of sections were taken at 2x with Camera Nikon DIGITAL SIGHT attached to the microscope. The observation of longitudinal sections of the small intestine allowed to determine the distribution and number of adenomatous lesions; four longitudinal sections have been prepared for each segment of small intestine. The microscopic images of the ileum have been subsequently analyzed, using the ImageJ software, to determine the diameter and area of each adenoma.

[2] = cited from earlier work
[3] = of the total number of adenomas in the ileum section

C[C@H](CCC(=O)N[C@H](CC(=O)O)Cc1c[nH]c2ccccc12)[C@H]1CC[C@H]2[C@@H]3CC[C@@H]4C[C@H](O)CC[C@]4(C)[C@H]3CC[C@]12C [UniPR129]
tolerability (APC ^min/J mice): well tolerated
ALT (APC ^min/J mice; mean ± SD, n = 7): 23.43 ± 3.78 UI
AST/GOT (APC ^min/J mice; mean ± SD, n = 7): 108.86 ± 47.11 UI
Basophils (APC ^min/J mice; mean ± SD, n = 7): 0.00 ± 0.00%
Creatinine (APC ^min/J mice; mean ± SD, n = 7): 0.22 ± 0.08 mg/dL
Eosinophils (APC ^min/J mice; mean ± SD, n = 7): 0.10 ± 0.10%
Glucose (APC ^min/J mice; mean ± SD, n = 7): 161.10 ± 21.18 mg/dL
Haematocrit (APC ^min/J mice; mean ± SD, n = 7): 26.69 ± 6.56%
Haemoglobin (APC ^min/J mice; mean ± SD, n = 7): 8.71 ± 2.15 g/dL
Lymphocytes (APC ^min/J mice; mean ± SD, n = 7): 93.29 ± 6.14%
Mean cellular Volume (APC ^min/J mice; mean ± SD, n = 7): 53.87 ± 2.62 fL
Mean platelet Volume (APC ^min/J mice; mean ± SD, n = 7): 4.91 ± 0.43 fL
Monocytes (APC ^min/J mice; mean ± SD, n = 7): 0.43 ± 0.31%
Neutrophils (APC ^min/J mice; mean ± SD, n = 7): 6.20 ± 6.33%
Platelets (APC ^min/J mice; mean ± SD, n = 7): 1191 ± 186.77 103/µL
Red cells (APC ^min/J mice; mean ± SD, n = 7): 5.01 ± 1.43 106/µL
Triglycerides (APC ^min/J mice; mean ± SD, n = 7): 145.10 ± 38.6 mg/dL
White cells (APC ^min/J mice; mean ± SD, n = 7): 4.83 ± 0.70 103/μL
efficacy in the model of intestinal tumorigenesis ([1]; 30 mg/kg oral every other day, 8 weeks): the only compound to show positive results
Ileum Adenomas, Mean (number) ([1]; 30 mg/kg oral every other day, 8 weeks, n = 7, CTR 13.14): 7.57 ± 2.07 and 7.57
Overall Intestine Adenomas, Mean (number) ([1]; 30 mg/kg oral every other day, 8 weeks, n = 7, CTR 19.71): 14.00
reduction of the formation of adenomas in the ileum ([1]; 30 mg/kg oral, 8 weeks, vs control): 1.6 times
mean adenoma diameter in the ileum ([1]; 30 mg/kg oral, ± 0.28 (SD), control 0.94 mm ± 0.39 (SD)): 0.71 mm
number of medium adenomas (1 to 1.5 mm) in the ileum ([1]; 30 mg/kg oral, ± SD, CTR 29 ± 2.5): 11 ± 1.3
Percentage of adenomas, class Large (1.5 to 2 mm) [1, 3]: 0%
Percentage of adenomas, class Medium (1 to 1.5 mm) [1, 3]: 21%
Percentage of adenomas, class Small (0.5 to 1 mm) [1, 3]: 51%
Percentage of adenomas, class Very Large (> 2 mm) [1, 3]: 0%
Percentage of adenomas, class Very Small (< 0.5 mm) [1, 3]: 28%
bioavailability after oral administration [2]: not be bioavailable after oral administration
first pass hepatic metabolism [2]: extensive first pass hepatic metabolism
